Like-named read-outs stand apart in the source and are kept apart here.
Legend:
[1] = tested on: HCV genotype 1a (H77 strain) replicon in HUH-7 cells; experiment: HCV replicon luciferase reporter assay, genotype 1a; assay type: cell-based; conditions: Hepatitis C virus, Huh-7, 72 h, 3 days incubation, read-out: LE_1a (EC50, range)
How it was run: (§1)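 Replicon inhibition for both genotypes was measured as Renilla luciferase signal (EnduRen, 7.5 μM final, 2 h) after 3-day, 37° C exposure of replicon-bearing HUH-7 cells in 4% FCS DMEM, 0.5% DMSO. The 1b construct carries S1179I; the 1a H77 construct carries P1496L and S2204I. Twenty-point, 3-fold dilutions were fitted four-parametrically for EC50, and CC50 was taken from multiplexed Cell Titer-Blue.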

[2] = tested on: HCV genotype 1b (Con1) replicon in HUH-7 cells; experiment: HCV replicon luciferase reporter assay, genotype 1b; assay type: cell-based; conditions: Hepatitis C virus, Huh-7, 72 h, 3 days incubation, read-out: LE_1b (EC50, range)
How it was run: as §1

[3] = HCV genotype 1a replicon luciferase
[4] = HCV genotype 1b replicon luciferase

SMILES	EC50 [1, 3]	EC50 [2, 4]	also measured
C[C@H]1CC/C=C\[C@@H]2C[C@@]2(C(=O)NS(=O)(=O)C2(C)CC2)NC(=O)[C@@H]2C[C@@H](Oc3ncc(OCC(F)F)c4ccccc34)CN2C(=O)[C@@H](NC(=O)OC(C)(C)C(F)(F)F)[C@H](C)C1 [Compound 1029, 1,1,1-trifluoro-2-methylpropan-2-yl((2R,6S,7R,9S,13aS,14aR,16aS,Z)-2-((4-(2,2-difluoroethoxyl)isoquinolin-1-yl)oxy)-7,9-dimethyl-14a-(((1-methylcyclopropyl)sulfonyl)carbamoyl)-5,16-dioxo-1,2,3,5,6,7,8,9,10,11,13a,14,14a,15,16,16a-hexadecahydrocyclopropa[e]pyrrolo[1,2-a][1,4]diazacyclopentadecin-6-yl)carbamate]	–	–	EC50 ([1]; HCV genotype 1a replicon luciferase assay, range class): 4.82 to 103 nM; EC50 ([2]; HCV genotype 1b replicon luciferase assay, range class): 4.82 to 103 nM
COc1ccc2c(O[C@@H]3C[C@H]4C(=O)N[C@]5(C(=O)NS(=O)(=O)C6(C)CC6)C[C@H]5/C=C\CC[C@@H](C)C[C@@H](C)[C@H](NC(=O)OC(C)(C)C(C)(F)F)C(=O)N4C3)cc(OC)nc2c1 [Compound 1214]	–	–	EC50 ([1]; GETYPE1A, HCV genotype 1a replicon luciferase): 1.01 to 5 nM; EC50 ([2]; GETYPE1B, HCV genotype 1b replicon luciferase): 0.1 to 0.5 nM
[2H]C([2H])([2H])C(OC(=O)N[C@@H]1C(=O)N2C[C@H](Oc3nc(-c4ccc(OC(C)C)cn4)cc4cc(OC)ccc34)C[C@H]2C(=O)N[C@]2(C(=O)NS(=O)(=O)C3CC3)C[C@H]2/C=C\CC[C@H](C)C[C@H]1C)(C([2H])([2H])[2H])C(F)(F)F [Compound 5204, 1,1,1,3,3,3-hexadeutero-2-(trifluoromethyl)propan-2-yl((2R,6S,7R,9S,13aS,14aR,16aS,Z)-14a-((cyclopropylsulfonyl)carbamoyl)-2-((3-(5-isopropoxypyridin-2-yl)-6-methoxyisoquinolin-1-yl)oxy)-7,9-dimethyl-5,16-dioxo-1,2,3,5,6,7,8,9,10,11,13a,14,14a,15,16,16a-hexadecahydrocyclopropa[e]pyrrolo[1,2-a][1,4]diazacyclopentadecin-6-yl)carbamate]	< 5.46 nM	< 5.46 nM	–
COc1ccc2c(O[C@@H]3C[C@H]4C(=O)N[C@]5(C(=O)NS(=O)(=O)C6(CF)CC6)C[C@H]5/C=C\CC[C@@H](C)C[C@@H](C)[C@H](NC(=O)OC(C)(C)C(F)(F)F)C(=O)N4C3)nc3c(c2c1)CCCO3 [Compound 6076, 1,1,1-trifluoro-2-methylpropan-2-yl((2R,6S,7R,9R,13aS,14aR,16aS,Z)-14a-(((1-(fluoromethyl)cyclopropyl)sulfonyl)carbamoyl)-2-((9-methoxy-2,3-dihydro-1H-pyrano[2,3-c]isoquinolin-6-yl)oxy)-7,9-dimethyl-5,16-dioxo-1,2,3,5,6,7,8,9,10,11,13a,14,14a,15,16,16a-hexadecahydrocyclopropa[e]pyrrolo[1,2-a][1,4]diazacyclopentadecin-6-yl)carbamate]	1.01 to 5 nM	1.01 to 5 nM	–
CCn1nc(O[C@@H]2C[C@H]3C(=O)N[C@]4(C(=O)NS(=O)(=O)C5(C)CC5)C[C@H]4/C=C\CC[C@@H](C)C[C@@H](C)[C@H](NC(=O)c4ccc(N(C)C)cc4)C(=O)N3C2)c2ccccc2c1=O [Compound 5061, (2R,6S,7R,9R,13aS,14aR,16aS,Z)-6-(4-(dimethylamino)benzamido)-2-((3-ethyl-4-oxo-3,4-dihydrophthalazin-1-yl)oxy)-7,9-dimethyl-N-((1-methylcyclopropyl)sulfonyl)-5,16-dioxo-1,2,3,5,6,7,8,9,10,11,13a,14,14a,15,16,16a-hexadecahydrocyclopropa[e]pyrrolo[1,2-a][1,4]diazacyclopentadecine-14a-carboxamide]	4.82 to 103 nM	4.82 to 103 nM	–

— US9499550B2 (BRISTOL-MYERS SQUIBB COMPANY, priority 2012, dated 2016)
